Consider 7 compounds from patent EP1243268A1, “MEDICINAL COMPOSITION” (Nippon Shinyaku Co., Ltd., priority 1999, dated 2001).

Data set [1] concerns mesangial cells. As to the kind of experiment: Effect on anti-Thy-1 antibody nephritis in rats (count of cells in the glomeruli). It counts as in vivo. The note with it: rats with anti-Thy-1 antibody nephritis; suspension (1mg/1ml) orally, 1 ml/100g of body weight twice a day for 7 days; kidneys removed on day 8; number of cells per glomerulus, mean ± standard error; Control 104.3±3.3, intact animal 67.25; *: P<0.05, **: P<0.01 (Dunnett's test). From the text:
Anti-Thy-1 antibody-induced nephritis is a model of glomerulonephritis constructed by utilizing the reaction between the Thy-1 antigen occurring as a membrane protein of mesangial cells and the antibody to the antigen. In this model, injuries to mesangial cells and lesions associated with mesangial cell proliferation are found. While a large majority of types of chronic glomerulonephritis in human are those of proliferative glomerulonephritis which show mesangial cell proliferation and increases in mesangial matrix as cardinal pathologic features, anti-Thy-1 antibody nephritis is regarded as a model of this human proliferative glomerulonephritis, particularly mesangial proliferative nephritis [Ishizaki et al., Acta. Pathol. Jpn., 36, 1191 (1986)].
Rats were used in groups of 7.
Preparation of the antibody was carried out in accordance with the method of Ishizaki et al. referred to above. Thus, an adjuvant suspension of rat thymocytes was prepared and subcutaneously administered to rabbits for immunization. After two booster doses, the blood was collected and the serum separated was subjected to inactivation and absorption to provide an antiserum (anti-Thy-1 antibody).
A predetermined amount of the antiserum was injected intravenously from the tail vein of rats to induce nephritis. Starting the following day after injection, a suspension (1mg/1ml) of the test drug was administered orally at a dosage of 1 ml/100g of body weight of rat twice a day for 7 days. On day 8 following the beginning of administration, the animals were sacrificed and the kidneys were removed. The kidney was fixed in Carnoy's fixative and, in the routine manner, paraffin sections were prepared and stained with hematoxyline stain for microscopy. For histopathological evaluation, the number of cells in the glomeruli (mainly mesangial cells) in each tissue preparation was counted under a light microscope. Statistical analysis was performed by Dunnett's test.

Data set [2] deals with mice. As to the kind of experiment: Acute toxicity. Type of data set: in vivo. The note with it: suspension orally at 300 mg/kg, general condition observed for a week after administration. The procedure:
Each of the compounds in Preparation Examples 1, 5, 6, 33, 34, 39, and 48 was administered.

On to `Cc1ccc2c(c1)c(C(=O)N1CCN(c3ccncc3)CC1)c(-c1ccccc1)n2C.Cl` [Preparation Example 34, 1-(1,5-Dimethyl-2-phenylindol-3-ylcarbonyl)-4-(4-pyridyl)piperazine hydrochloride], for which the “Number of mesangial cells a)” value in data set [1] is listed as 87.1±5.7**. The deaths entry in data set [2] is recorded as “No deaths were observed”.
With `Cc1ccc2c(c1)c(C(=O)N1CCN(c3cccnc3)CC1)c(-c1ccccc1)n2C.Cl.Cl` [Preparation Example 33, 1-(1,5-Dimethyl-2-phenylindol-3-ylcarbonyl)-4-(3-pyridyl)piperazine dihydrochloride], the “Number of mesangial cells a)” value in data set [1] is listed as 88.5±3.7**. Also, the deaths result in data set [2] is “No deaths were observed”.
Regarding `Cl.Cn1c(-c2ccccc2)c(C(=O)N2CCN(c3ccc([N+](=O)[O-])cn3)CC2)c2ccccc21` [Preparation Example 48, 1-(1-Methyl-2-phenylindol-3-ylcarbonyl)-4-(5-nitro-2-pyridyl)piperazine hydrochloride], the “Number of mesangial cells a)” value in data set [1] is given as 89.2±3.1*. For the same compound, the deaths entry in data set [2] is listed as “No deaths were observed”.
With `Cc1cc2c(C(=O)N3CCN(c4ccncc4)CC3)c(-c3ccccc3)n(C)c2cc1C.Cl` [Preparation Example 39, 1-(1,5,6-Trimethyl-2-phenylindol-3-ylcarbonyl)-4-(4-pyridyl)piperazine hydrochloride], the deaths result in data set [2] was “No deaths were observed”.
Consider `Cn1c(-c2ccccc2)c(C(=O)N2CC[N+]([O-])(c3ccccn3)CC2)c2ccccc21` [Preparation Example 5, 1-(1-Methyl-2-phenylindol-3-ylcarbonyl)-4-(2-pyridyl)piperazine-4-oxide], for which, in data set [2], the deaths entry is “No deaths were observed”.
Regarding `Cc1ccc2c(c1)c(C(=O)N1CCN(c3ccccn3)CC1)c(-c1ccccc1)n2C.Cl` [Preparation Example 1, 1-(1,5-Dimethyl-2-phenylindol-3-ylcarbonyl)-4-(2-pyridyl)piperazine hydrochloride], the “Number of mesangial cells a)” value in data set [1] is recorded as 90.3±2.2*. Also, the deaths result in data set [2] was “No deaths were observed”.
As to `Cl.Cn1c(-c2ccccc2)c(C(=O)N2CCN(c3ccccn3)CC2)c2ccccc21` [Preparation Example 6, 1-(1-Methyl-2-phenylindol-3-ylcarbonyl)-4-(2-pyridyl)piperazine hydrochloride], in data set [2], the deaths entry was “No deaths were observed”.
